# According to US20130030017A1, “QUINOLINE DERIVATIVES AS ANTIBACTERIAL AGENTS” (priority 2005, published 2013):
# Experiments:
# Type in all cases: cell-based
# [1] = system: Enterococcus faecalis (ATCC29212); experiment: Microtitre plate assay, IC90 determination (EFA 29212); details: 90% inhibitory concentration for bacterial growth, 37° C., resazurin fluorescence; for IC90: Enterococcus faecalis, ATCC29212, 24 h; for IC90 EFA 29212: 24 hours
# Experimental: (§1) The bacteria used in this study were grown overnight in flasks containing 100 ml Mueller-Hinton Broth (Becton Dickinson—cat. no. 275730) in sterile de-ionized water, with shaking, at 37° C. Stocks (0.5 ml/tube) were stored at −70° C. until use. Bacteria titrations were performed in microtiter plates and colony forming units (CFUs) were determined. In general, an inoculum level of approximately 100 CFUs was used for susceptibility testing.
# (§2) Flat-bottom, sterile 96-well plastic microtiter plates were filled with 180 μl of sterile deionized water, supplemented with 0.25% BSA. Subsequently, stock solutions (7.8× final test concentration) of compounds were added in 45 μl volumes in column 2 Serial five-fold dilutions (45 μl in 180 μl) were made directly in the microtiter plates from column 2 to reach column 11. Untreated control samples with (column 1) and without (column 12) inoculum were included in each microtiter plate. Depending on the bacteria type, approximately 10 to 60 CFU per well of bacteria inoculum (100 TCID50), in a volume of 100 μl in 2.8× Mueller-Hinton broth medium, was added to the rows A to H, except column 12. The same volume of broth medium without inoculum was added to column 12 in row A to H. The cultures were incubated at 37° C. for 24 hours under a normal atmosphere (incubator with open air valve and continuous ventilation). At the end of incubation, one day after inoculation, the bacterial growth was quantitated fluorometrically. Therefore resazurin (0.6 mg/ml) was added in a volume of 20 μl to all wells 3 hours after inoculation, and the plates were re-incubated overnight. A change in colour from blue to pink indicated the growth of bacteria. The fluorescence was read in a computer-controlled fluorometer (Cytofluor Biosearch) at an excitation wavelength of 530 nm and an emission wavelength of 590 nm. The % growth inhibition achieved by the compounds was calculated according to standard methods. The IC90 (expressed in μg/ml) was defined as the 90% inhibitory concentration for bacterial growth.
# [2] = system: Streptococcus pneumoniae (ATCC6305); experiment: Microtitre plate assay, IC90 determination (SPN 6305); details: 90% inhibitory concentration for bacterial growth, 37° C., resazurin fluorescence; for IC90 SPN 6305: 24 hours; for IC90: Streptococcus pneumoniae, ATCC6305, 24 h
# Experimental: as §1, §2
# [3] = system: Pseudomonas aeruginosa (ATCC27853); experiment: Microtitre plate assay, IC90 determination (PAE 27853); details: 90% inhibitory concentration for bacterial growth, 37° C., resazurin fluorescence; for IC90: Pseudomonas aeruginosa, ATCC27853, 24 h; for IC90 PAE 27853: 24 hours
# Experimental: as §1, §2
# [4] = system: Streptococcus pyogens (ATCC8668); experiment: Microtitre plate assay, IC90 determination (SPY 8668); details: 90% inhibitory concentration for bacterial growth, 37° C., resazurin fluorescence; for IC90: Streptococcus, ATCC8668, 24 h; for IC90 SPY 8668: 24 hours
# Experimental: as §1, §2
# [5] = system: Staphylococcus aureus (ATCC29213); experiment: Microtitre plate assay, IC90 determination (STA 29213); details: 90% inhibitory concentration for bacterial growth, 37° C., resazurin fluorescence; for IC90 STA 29213: 24 hours; for IC90: Staphylococcus aureus, ATCC29213, 24 h
# Experimental: as §1, §2
IC90 SPN 6305 [2],IC90 STA 29213 [5],SMILES,also measured
2.3 µg/mL,9.2 µg/mL,COc1nc2ccc(Br)cc2cc1C(c1ccc(Cl)cc1)C(O)(CCc1ccc(C)cc1)CCN(C)C (stereo not drawn) [Compound 87],IC90 [1]: 11.6 µg/mL; IC90 [3]: 9.2 µg/mL; IC90 [4]: 5.2 µg/mL
5.7 µg/mL,9.0 µg/mL,COc1nc2ccc(Br)cc2cc1C(c1ccccc1)C(O)(CCc1ccc(Cl)cc1)CCN(C)C (racemic) [Compound 56],–
–,–,COc1ccc(C(c2cc3cc(Br)ccc3nc2OC)C(O)(CCc2ccc(F)cc2)CCN(C)C)cc1 (stereo not drawn) [Compound 84],IC90 [1]: 58.2 µg/mL; IC90 [2]: 2.1 µg/mL; IC90 [3]: 46.2 µg/mL; IC90 [4]: 46.2 µg/mL; IC90 [5]: 4.6 µg/mL
10.6 µg/mL,42.2 µg/mL,COc1nc2ccc(-c3ccccc3)cc2cc1C(c1ccccc1)C(O)(CCc1ccccc1)CCN(C)C (racemic) [Compound 59],–
0.3 µg/mL,1.5 µg/mL,CNCCC(O)(CCc1ccc(F)cc1)C(c1ccccc1)c1cc2ccccc2nc1OC (stereo not drawn) [Compound 38],–
0.5 µg/mL,–,COc1nc2ccc(Br)cc2cc1C(c1cccc(C)c1)C(O)(CCc1ccc(F)cc1)CCN(C)C (stereo not drawn) [Compound 83],IC90 EFA 29212 [1]: 9.0 µg/mL; IC90 PAE 27853 [3]: 4.0 µg/mL; IC90 [4]: 1.8 µg/mL; IC90 [5]: 1.8 µg/mL
–,–,COc1ccccc1CCC(O)(CCN(C)C)C(c1ccc(Cl)cc1)c1cc2cc(Br)ccc2nc1OC (stereo not drawn) [Compound 88],IC90 [1]: 37.7 µg/mL; IC90 [2]: 0.5 µg/mL; IC90 [3]: 2.1 µg/mL; IC90 [4]: 1.9 µg/mL; IC90 [5]: 9.5 µg/mL
0.3 µg/mL,1.5 µg/mL,CNCCC(O)(CCc1ccc(F)cc1)C(c1ccccc1)c1cc2cc(Br)ccc2nc1OC (stereo not drawn) [Compound 40],–
0.3 µg/mL,16.2 µg/mL,COc1nc2ccc(Br)cc2cc1C(c1ccccc1)C(O)(CCc1ccc(C(C)C)cc1)CCN(C)C (stereo not drawn) [Compound 23],–
–,–,COc1nc2ccc(Br)cc2cc1C(c1ccc(Cl)cc1)C(O)(CCc1ccc(C(F)(F)F)cc1)CCN(C)C (stereo not drawn) [Compound 89],IC90 [2]: 2.3 µg/mL; IC90 [5]: 22.6 µg/mL
1.9 µg/mL,9.3 µg/mL,COc1nc2ccc(Br)cc2cc1C(c1cccc(Cl)c1)C(O)(CCc1ccc(F)cc1)CCN(C)C (stereo not drawn) [Compound 80],IC90 EFA 29212 [1]: 8.3 µg/mL; IC90 PAE 27853 [3]: 1.9 µg/mL; IC90 SPY 8668 [4]: 3.3 µg/mL
2.6 µg/mL,16.4 µg/mL,COc1nc2ccc(Br)cc2cc1C(c1ccc(Cl)cc1)C(O)(CCc1cccc(OC(F)(F)F)c1)CCN(C)C (stereo not drawn) [Compound 90],–
0.3 µg/mL,–,COc1nc2ccc(Br)cc2cc1C(c1ccc(Cl)cc1)C(O)(CCc1cccc(OC(F)(F)F)c1)CCN(C)C (stereo not drawn) [Compound 91],IC90 [5]: 32.7 µg/mL
10.4 µg/mL,8.3 µg/mL,COc1nc2ccc(-c3ccco3)cc2cc1C(c1ccccc1)C(O)(CCc1ccccc1)CCN(C)C (racemic) [Compound 62],–
3.4 µg/mL,3.0 µg/mL,COc1nc2ccc(Br)cc2cc1C(c1ccc(Cl)cc1)C(O)(CCc1ccc(Cl)cc1)CCN(C)C (stereo not drawn) [Compound 75],–
0.3 µg/mL,1.8 µg/mL,COc1nc2ccc(Br)cc2cc1C(c1ccccc1)C(O)(CCc1ccc(Cl)cc1)CCN(C)C (racemic) [Compound 55],–
0.4 µg/mL,–,COc1ccc(CCC(O)(CCN(C)C)C(c2ccc(Cl)cc2)c2cc3cc(Br)ccc3nc2OC)cc1 (stereo not drawn) [Compound 22],IC90 EFA 29212 [1]: 9.5 µg/mL; IC90 [3]: 1.9 µg/mL; IC90 [4]: 1.9 µg/mL; IC90 [5]: 1.9 µg/mL

IC90 SPN 6305 [2],IC90 STA 29213 [5],SMILES,also measured
2.3 µg/mL,9.0 µg/mL,COc1nc2ccc(Br)cc2cc1C(c1ccccc1)C(O)(CCN(C)C)Cc1cccc2ccccc12 (stereo not drawn) [Compound 42],IC90 [1]: 22.7 µg/mL; IC90 [3]: 10.1 µg/mL; IC90 [4]: 4.5 µg/mL
1.5 µg/mL,7.4 µg/mL,COc1nc2ccc(Br)cc2cc1C(c1ccc(Cl)cc1)C(O)(CCc1cccc(F)c1)CCN(C)C (stereo not drawn) [Compound 78],IC90 EFA 29212 [1]: 9.3 µg/mL; IC90 PAE 27853 [3]: 1.9 µg/mL; IC90 SPY 8668 [4]: 1.9 µg/mL
0.5 µg/mL,6.0 µg/mL,COc1nc2ccc(Br)cc2cc1C(c1ccccc1)C(O)(CCc1ccc(Cl)c(Cl)c1)CCN(C)C (racemic) [Compound 57],–
0.5 µg/mL,1.9 µg/mL,COc1nc2ccc(Br)cc2cc1C(c1ccccc1)C(O)(CCc1ccc(C(F)(F)F)cc1)CCN(C)C (racemic) [Compound 46],IC90 EFA 29212 [1]: 1.9 µg/mL; IC90 PAE 27853 [3]: 1.9 µg/mL; IC90 SPY 8668 [4]: 1.9 µg/mL
2.3 µg/mL,1.8 µg/mL,COc1nc2ccc(Br)cc2cc1C(c1cccc(C)c1)C(O)(CCc1ccc(F)cc1)CCN(C)C (stereo not drawn) [Compound 82],IC90 EFA 29212 [1]: 1.8 µg/mL; IC90 PAE 27853 [3]: 1.8 µg/mL; IC90 SPY 8668 [4]: 1.8 µg/mL
10.6 µg/mL,53.1 µg/mL,COc1nc2ccc(-c3ccccc3)cc2cc1C(c1ccccc1)C(O)(CCc1ccccc1)CCN(C)C (racemic) [Compound 60],–
4.1 µg/mL,36.1 µg/mL,COc1nc2ccccc2cc1C(c1ccccc1)C(O)(CCc1ccccc1)CCN(C)C (racemic) [Compound 13],–
2.1 µg/mL,4.1 µg/mL,COc1ccc(C(c2cc3cc(Br)ccc3nc2OC)C(O)(CCc2ccc(F)cc2)CCN(C)C)cc1 (stereo not drawn) [Compound 85],–
8.7 µg/mL,43.8 µg/mL,COc1nc2ccc(Br)cc2cc1C(c1ccccc1)C(O)(CCc1cccc(F)c1)CCN(C)C (racemic) [Compound 47],–
–,–,COc1nc2ccc(CO)cc2cc1C(c1ccccc1)C(O)(CCc1ccccc1)CCN(C)C (stereo not drawn) [Compound 58],IC90 [2]: 8.6 µg/mL; IC90 [5]: 8.6 µg/mL
–,2.6 µg/mL,COc1nc2ccc(Br)cc2cc1C(c1ccccc1)C(O)(CCc1ccc(C(C)C)cc1)CCN(C)C (stereo not drawn) [Compound 24],IC90 [2]: 0.3 µg/mL
7.5 µg/mL,–,COc1nc2ccc(-c3cccnc3)cc2cc1C(c1ccccc1)C(O)(CCc1ccccc1)CCN(C)C (racemic) [Compound 61],–
10.7 µg/mL,42.6 µg/mL,COc1nc2ccc(-c3cccs3)cc2cc1C(c1ccccc1)C(O)(CCc1ccccc1)CCN(C)C (racemic) [Compound 64],–
1.9 µg/mL,7.7 µg/mL,CSc1nc2ccc(C)cc2cc1C(c1ccccc1)C(O)(CCc1ccccc1)CCN(C)C (stereo not drawn) [Compound 30],–
9.7 µg/mL,10.9 µg/mL,COc1ccc2nc(OC)c(C(c3ccccc3)C(O)(CCc3ccccc3)CCN(C)C)cc2c1 (stereo not drawn) [Compound 4],–
–,41.2 µg/mL,COc1nc2ccc(Br)cc2cc1C(c1ccc(Cl)cc1)C(O)(CCc1ccc(C)cc1)CCN(C)C (stereo not drawn) [Compound 86],IC90 [2]: 2.1 µg/mL
0.4 µg/mL,–,COc1nc2ccc(Br)cc2cc1C(c1ccc(Cl)cc1)C(O)(CCc1ccc(Cl)cc1)CCN(C)C (stereo not drawn) [Compound 76],IC90 [5]: 2.1 µg/mL

SMILES,IC90 SPN 6305 [2],IC90 STA 29213 [5],also measured
COc1nc2ccc(Br)cc2cc1C(c1ccccc1)C(O)(CCc1ccccc1)CCN(C)C (stereo not drawn) [Compound 17],4.8 µg/mL,8.5 µg/mL,–
COc1nc2ccc(Br)cc2cc1C(c1ccccc1)C(O)(CCc1ccc(F)cc1)CCN(C)C (stereo not drawn) [Compound 25],1.7 µg/mL,7.8 µg/mL,–
COc1nc2ccc(Br)cc2cc1C(c1ccccc1)C(O)(CCc1ccc(C)cc1)CCN(C)C (racemic) [Compound 52],1.4 µg/mL,6.9 µg/mL,IC90 EFA 29212 [1]: 1.7 µg/mL; IC90 PAE 27853 [3]: 1.7 µg/mL; IC90 SPY 8668 [4]: 1.7 µg/mL
COc1nc2ccc(Br)cc2cc1C(c1ccccc1)C(O)(CCc1ccc(F)cc1)CCN(C)C (stereo not drawn) [Compound 27],2.0 µg/mL,1.7 µg/mL,–
